Experimental data from PubChem BioAssay (NCI).
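Where inhibition never reached the appropriate level, the endpoint shown equals the highest concentration tested. Otherwise, values were interpolated linearly from a five-concentration, 48-hour dose response in 96-well plates. GI50 is the concentration that inhibits growth by half. At the TGI there is no net growth.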

Columns and labels:
Experiment in all cases: NCI tumour cell line growth inhibition, 48 h
U251 CNS = tested on: U251 CNS
NCI-H522 lung = tested on: NCI-H522 lung
SK-OV-3 ovarian = tested on: SK-OV-3 ovarian
RPMI-8226 leukemia = tested on: RPMI-8226 leukemia
CCRF-CEM leukemia = tested on: CCRF-CEM leukemia
HT29 colon = tested on: HT29 colon
SW-620 colon = tested on: SW-620 colon
NCI-H460 lung = tested on: NCI-H460 lung
HCT-15 colon = tested on: HCT-15 colon
SNB-19 CNS = tested on: SNB-19 CNS
OVCAR-3 ovarian = tested on: OVCAR-3 ovarian
P388/ADR leukemia = tested on: P388/ADR leukemia
DLD-1 colon = tested on: DLD-1 colon
MALME-3M melanoma = tested on: MALME-3M melanoma
RXF 393 renal = tested on: RXF 393 renal
A549 NSCLC = tested on: A549 NSCLC
SF-268 CNS = tested on: SF-268 CNS
SN12C renal = tested on: SN12C renal
SK-MEL-28 melanoma = tested on: SK-MEL-28 melanoma
COLO 205 colon = tested on: COLO 205 colon
HOP-92 NSCLC = tested on: HOP-92 NSCLC
HOP-62 NSCLC = tested on: HOP-62 NSCLC
SF-295 CNS = tested on: SF-295 CNS
HL-60(TB) leukemia = tested on: HL-60(TB) leukemia
SNB-75 CNS = tested on: SNB-75 CNS
HOP-18 NSCLC = tested on: HOP-18 NSCLC
DMS 273 small cell lung = tested on: DMS 273 small cell lung
M19-MEL melanoma = tested on: M19-MEL melanoma
SK-MEL-2 melanoma = tested on: SK-MEL-2 melanoma
MOLT-4 leukemia = tested on: MOLT-4 leukemia
A498 renal = tested on: A498 renal
OVCAR-4 ovarian = tested on: OVCAR-4 ovarian
EKVX NSCLC = tested on: EKVX NSCLC
MCF7 breast = tested on: MCF7 breast
K-562 leukemia = tested on: K-562 leukemia
SNB-78 CNS = tested on: SNB-78 CNS
HCT-116 colon = tested on: HCT-116 colon
CAKI-1 renal = tested on: CAKI-1 renal
SN12K1 renal = tested on: SN12K1 renal
LOX IMVI melanoma = tested on: LOX IMVI melanoma
UACC-257 melanoma = tested on: UACC-257 melanoma
HCC-2998 colon = tested on: HCC-2998 colon
SK-MEL-5 melanoma = tested on: SK-MEL-5 melanoma
UO-31 renal = tested on: UO-31 renal
OVCAR-8 ovarian = tested on: OVCAR-8 ovarian
DMS 114 small cell lung = tested on: DMS 114 small cell lung
NCI-H23 lung = tested on: NCI-H23 lung
IGROV1 ovarian = tested on: IGROV1 ovarian
KM20L2 colon = tested on: KM20L2 colon
UACC-62 melanoma = tested on: UACC-62 melanoma
KM12 colon = tested on: KM12 colon
XF 498 CNS = tested on: XF 498 CNS
NCI/ADR-RES ovarian = tested on: NCI/ADR-RES ovarian
SF-539 CNS = tested on: SF-539 CNS
OVCAR-5 ovarian = tested on: OVCAR-5 ovarian
NCI-H226 lung = tested on: NCI-H226 lung
RXF-631 renal = tested on: RXF-631 renal
ACHN renal = tested on: ACHN renal
786-0 renal = tested on: 786-0 renal
M14 melanoma = tested on: M14 melanoma
LXFL 529 NSCLC = tested on: LXFL 529 NSCLC
SR leukemia = tested on: SR leukemia
TK-10 renal = tested on: TK-10 renal

In the case of `O=C(NCCCl)O/N=C/c1cccnc1`, the TGI (U251 CNS) is reported as > 100 µM, the TGI (NCI-H522 lung) is reported as > 100 µM and the TGI (SK-OV-3 ovarian) is reported as > 100 µM. For the same molecule, the TGI (RPMI-8226 leukemia) was > 100 µM, the TGI (CCRF-CEM leukemia) was > 100 µM and the TGI (HT29 colon) was > 100 µM. For the same molecule, the TGI (SW-620 colon) was > 100 µM, the TGI (NCI-H460 lung) was > 100 µM and the TGI (HCT-15 colon) was > 100 µM. For the same molecule, the TGI (SNB-19 CNS) was > 100 µM, the TGI (OVCAR-3 ovarian) was > 100 µM and the TGI (P388/ADR leukemia) was > 100 µM. For the same molecule, the TGI (DLD-1 colon) was > 100 µM, the GI50 (MALME-3M melanoma) was 89.5 µM and the TGI (MALME-3M melanoma) was > 100 µM. The GI50 (RXF 393 renal) was > 100 µM, the TGI (RXF 393 renal) was > 100 µM and the TGI (A549 NSCLC) was > 100 µM. For the same molecule, the TGI (SF-268 CNS) was > 100 µM, the TGI (SN12C renal) was > 100 µM and the TGI (SK-MEL-28 melanoma) was > 100 µM. The TGI (COLO 205 colon) was > 100 µM, the TGI (HOP-92 NSCLC) was > 100 µM and the TGI (HOP-62 NSCLC) was > 100 µM. The TGI (SF-295 CNS) was > 100 µM, the TGI (HL-60(TB) leukemia) was > 100 µM and the GI50 (SNB-75 CNS) was > 100 µM. The TGI (SNB-75 CNS) was > 100 µM, the TGI (HOP-18 NSCLC) was > 100 µM and the TGI (DMS 273 small cell lung) was > 100 µM. The TGI (M19-MEL melanoma) was > 100 µM, the TGI (SK-MEL-2 melanoma) was > 100 µM and the TGI (MOLT-4 leukemia) was > 100 µM. The GI50 (A498 renal) was 78.2 µM, the TGI (A498 renal) was > 100 µM and the TGI (OVCAR-4 ovarian) was > 100 µM. For the same molecule, the TGI (EKVX NSCLC) was > 100 µM, the TGI (MCF7 breast) was > 100 µM and the TGI (K-562 leukemia) was > 100 µM. The GI50 (SNB-78 CNS) was > 100 µM, the TGI (SNB-78 CNS) was > 100 µM and the TGI (HCT-116 colon) was > 100 µM. For the same molecule, the TGI (CAKI-1 renal) was > 100 µM, the TGI (SN12K1 renal) was > 100 µM and the TGI (LOX IMVI melanoma) was > 100 µM. The TGI (UACC-257 melanoma) was > 100 µM, the TGI (HCC-2998 colon) was > 100 µM and the TGI (SK-MEL-5 melanoma) was > 100 µM. For the same molecule, the TGI (UO-31 renal) was > 100 µM, the TGI (OVCAR-8 ovarian) was > 100 µM and the TGI (DMS 114 small cell lung) was > 100 µM. For the same molecule, the TGI (NCI-H23 lung) was > 100 µM, the TGI (IGROV1 ovarian) was > 100 µM and the GI50 (KM20L2 colon) was > 100 µM. For the same molecule, the TGI (KM20L2 colon) was > 100 µM, the TGI (UACC-62 melanoma) was > 100 µM and the TGI (KM12 colon) was > 100 µM. For the same molecule, the TGI (XF 498 CNS) was > 100 µM, the TGI (NCI/ADR-RES ovarian) was > 100 µM and the TGI (SF-539 CNS) was > 100 µM. The TGI (OVCAR-5 ovarian) was > 100 µM and the TGI (NCI-H226 lung) was > 100 µM.
With `CCCCCCCCCCCC[N+]12CC[N+](CCN)(CC1)CC2` the TGI (U251 CNS) was > 100 µM, the TGI (NCI-H522 lung) was > 100 µM and the TGI (SK-OV-3 ovarian) was > 100 µM. The TGI (RPMI-8226 leukemia) was > 100 µM, the TGI (CCRF-CEM leukemia) was > 100 µM and the TGI (HT29 colon) was > 100 µM. For the same molecule, the TGI (SW-620 colon) was > 100 µM, the TGI (NCI-H460 lung) was > 100 µM and the TGI (SNB-19 CNS) was 64.3 µM. For the same molecule, the TGI (OVCAR-3 ovarian) was > 100 µM, the TGI (DLD-1 colon) was > 100 µM and the TGI (MALME-3M melanoma) was > 100 µM. The TGI (RXF-631 renal) was > 100 µM, the TGI (RXF 393 renal) was 18.1 µM and the TGI (A549 NSCLC) was > 100 µM. For the same molecule, the TGI (SF-268 CNS) was > 100 µM, the TGI (SN12C renal) was > 100 µM and the TGI (SK-MEL-28 melanoma) was > 100 µM. For the same molecule, the TGI (COLO 205 colon) was > 100 µM, the TGI (ACHN renal) was > 100 µM and the TGI (HOP-92 NSCLC) was > 100 µM. The TGI (HOP-62 NSCLC) was > 100 µM, the TGI (SF-295 CNS) was > 100 µM and the TGI (HL-60(TB) leukemia) was > 100 µM. For the same molecule, the TGI (SNB-75 CNS) was > 100 µM, the TGI (HOP-18 NSCLC) was > 100 µM and the TGI (DMS 273 small cell lung) was 31.9 µM. The TGI (M19-MEL melanoma) was > 100 µM, the TGI (SK-MEL-2 melanoma) was > 100 µM and the TGI (MOLT-4 leukemia) was > 100 µM. The TGI (OVCAR-4 ovarian) was > 100 µM, the TGI (EKVX NSCLC) was > 100 µM and the TGI (K-562 leukemia) was > 100 µM. For the same molecule, the TGI (SNB-78 CNS) was > 100 µM, the TGI (HCT-116 colon) was > 100 µM and the TGI (CAKI-1 renal) was > 100 µM. The TGI (LOX IMVI melanoma) was > 100 µM, the TGI (UACC-257 melanoma) was > 100 µM and the TGI (HCC-2998 colon) was > 100 µM. For the same molecule, the TGI (SK-MEL-5 melanoma) was > 100 µM, the TGI (UO-31 renal) was > 100 µM and the TGI (OVCAR-8 ovarian) was > 100 µM. For the same molecule, the TGI (DMS 114 small cell lung) was > 100 µM, the TGI (786-0 renal) was > 100 µM and the TGI (M14 melanoma) was > 100 µM. The TGI (NCI-H23 lung) was > 100 µM, the TGI (IGROV1 ovarian) was 39.7 µM and the TGI (LXFL 529 NSCLC) was > 100 µM. For the same molecule, the TGI (SR leukemia) was 81.7 µM, the TGI (KM20L2 colon) was > 100 µM and the TGI (UACC-62 melanoma) was > 100 µM. For the same molecule, the TGI (KM12 colon) was 62.7 µM, the TGI (XF 498 CNS) was > 100 µM and the TGI (SF-539 CNS) was > 100 µM. For the same molecule, the TGI (TK-10 renal) was 39.7 µM, the TGI (OVCAR-5 ovarian) was 38.1 µM and the TGI (NCI-H226 lung) was > 100 µM.
